Reference: patent US10385103B2, “Cell-permeable (ICP)-SOCS3 recombinant protein and uses thereof” (CELLIVERY THERAPEUTICS, INC., priority 2014, dated 2019)

System: RAW 264.7 cells
Test: Quantitative cell-permeability of FITC-labeled aMTD- or rPeptide-fused CRA recombinant proteins (flow cytometry)
Type: cell-based
Conditions: for Relative Ratio to aMTD AVE: cell-permeability of rPeptide-fused CRA recombinant protein relative to average of 240 aMTDs
How it was run: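 RAW 264.7 cells were exposed to 10 μM FITC-labeled recombinant proteins, consisting of a non-functional cargo fused to aMTD or rPeptide sequences, for 1 hour at 37° C. Cells were washed three times in cold PBS and treated with 0.25% tripsin/EDTA for 20 minutes at 37° C. to strip surface-bound protein, then uptake was measured by flow cytometry.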

[1] = cell-permeability relative to negative control rP38 (A type), aMTD-fused CRA recombinant protein, 10 μM FITC-labeled, 1 hour, 37° C., RAW 264.7 cells
[2] = cell-permeability relative to reference CPP MTD85 (C type), aMTD-fused CRA recombinant protein, 10 μM FITC-labeled, 1 hour, 37° C., RAW 264.7 cells
[3] = cell-permeability relative to reference CPP MTM12 (B type), aMTD-fused CRA recombinant protein, 10 μM FITC-labeled, 1 hour, 37° C., RAW 264.7 cells
[4] = cell-permeability of aMTD-fused CRA recombinant protein relative to negative control (A: rP38)
[5] = cell-permeability of aMTD-fused CRA recombinant protein relative to reference CPP (B: MTM12)
[6] = cell-permeability of aMTD-fused CRA recombinant protein relative to reference CPP (C: MTD85)
[7] = 10 μM FITC-labeled, 1 hour, 37° C., RAW 264.7 cells

“604 (VALIAVAPAVVP; Amino acid Sequence of aMTD604) [compound 604]” was tested, and the “Relative Ratio (Fold) A” value [1] was 4.3 Fold, the “Relative Ratio (Fold) C” value [2] was 1.5 Fold and the “Relative Ratio (Fold) B” value [3] was 2.5 Fold.

For “605 (VIAAVLAPVAVP; Amino acid Sequence of aMTD605) [compound 605]”, the “Relative Ratio (Fold) A” value [4] was 11.0 Fold, the “Relative Ratio (Fold) B” value [5] was 7.4 Fold and the “Relative Ratio (Fold) C” value [6] was 3.7 Fold.

“622 (ALIVLAAPVAVP; Amino acid Sequence of aMTD622) [compound 622]” was tested, and the “Relative Ratio (Fold) A” value [4] was 10.6 Fold, the “Relative Ratio (Fold) B” value [5] was 7.1 Fold and the “Relative Ratio (Fold) C” value [6] was 3.6 Fold. For the same substance, the “Relative Ratio (Fold) A” value [1] was 10.6 Fold, the “Relative Ratio (Fold) C” value [2] was 3.6 Fold and the “Relative Ratio (Fold) B” value [3] was 7.1 Fold.

For “623 (VAAAIALPAIVP; Amino acid Sequence of aMTD623) [compound 623]”, the “Relative Ratio (Fold) A” value [1] was 0.8 Fold, the “Relative Ratio (Fold) C” value [2] was 0.3 Fold and the “Relative Ratio (Fold) B” value [3] was 0.6 Fold.

With “625 (ILAAAAAPLIVP; Amino acid Sequence of aMTD625) [compound 625]” the “Relative Ratio (Fold) A” value [4] was 20.3 Fold, the “Relative Ratio (Fold) B” value [5] was 13.9 Fold and the “Relative Ratio (Fold) C” value [6] was 7.0 Fold.

“635 (GSTGGSQQNNQY; Amino acid Sequence of rPeptide ID 635) [compound 635]” was tested, and the “Relative Ratio to aMTD AVE” value [7] was 0.07.

In the case of “643 (LALVLAAPAIVP; Amino acid Sequence of aMTD643) [compound 643]”, the “Relative Ratio (Fold) A” value [4] is reported as 11.8 Fold, the “Relative Ratio (Fold) B” value [5] is reported as 7.9 Fold and the “Relative Ratio (Fold) C” value [6] is reported as 4.0 Fold.

“645 (ALAVVALPAIVP; Amino acid Sequence of aMTD645) [compound 645]” was tested, and the “Relative Ratio (Fold) A” value [1] was 4.3 Fold, the “Relative Ratio (Fold) C” value [2] was 1.5 Fold and the “Relative Ratio (Fold) B” value [3] was 2.9 Fold.

For “661 (AAILAPIVAALP; Amino acid Sequence of aMTD661) [compound 661]”, the “Relative Ratio (Fold) A” value [4] was 21.4 Fold, the “Relative Ratio (Fold) B” value [5] was 14.3 Fold and the “Relative Ratio (Fold) C” value [6] was 7.2 Fold.

“664 (ILIAIAIPAAAP; Amino acid Sequence of aMTD664) [compound 664]” was tested, and the “Relative Ratio (Fold) A” value [1] was 5.7 Fold, the “Relative Ratio (Fold) C” value [2] was 1.9 Fold and the “Relative Ratio (Fold) B” value [3] was 3.8 Fold.

With “665 (LAIVLAAPVAVP; Amino acid Sequence of aMTD665) [compound 665]” the “Relative Ratio (Fold) A” value [4] was 14.7 Fold, the “Relative Ratio (Fold) B” value [5] was 9.9 Fold and the “Relative Ratio (Fold) C” value [6] was 5.0 Fold.

“666 (AAIAIIAPAIVP; Amino acid Sequence of aMTD666) [compound 666]” was tested, and the “Relative Ratio (Fold) A” value [4] was 14.7 Fold, the “Relative Ratio (Fold) B” value [5] was 9.9 Fold and the “Relative Ratio (Fold) C” value [6] was 5.0 Fold.

“667 (LAVAIVAPALVP; Amino acid Sequence of aMTD667) [compound 667]” was tested, and the “Relative Ratio (Fold) A” value [1] was 6.9 Fold, the “Relative Ratio (Fold) C” value [2] was 2.3 Fold and the “Relative Ratio (Fold) B” value [3] was 4.6 Fold.

“683 (LAIVLAAPAVLP; Amino acid Sequence of aMTD683) [compound 683]” was tested, and the “Relative Ratio (Fold) A” value [1] was 5.5 Fold, the “Relative Ratio (Fold) C” value [2] was 1.9 Fold and the “Relative Ratio (Fold) B” value [3] was 3.2 Fold.

For “684 (AAIVLALPAVLP; Amino acid Sequence of aMTD684) [compound 684]”, the “Relative Ratio (Fold) A” value [1] was 3.5 Fold, the “Relative Ratio (Fold) C” value [2] was 1.2 Fold and the “Relative Ratio (Fold) B” value [3] was 2.1 Fold.

“685 (ALLVAVLPAALP; Amino acid Sequence of aMTD685) [compound 685]” was tested, and the “Relative Ratio (Fold) A” value [4] was 10.2 Fold, the “Relative Ratio (Fold) B” value [5] was 5.9 Fold and the “Relative Ratio (Fold) C” value [6] was 3.4 Fold.

In the case of “686 (AALVAVLPVALP; Amino acid Sequence of aMTD686) [compound 686]”, the “Relative Ratio (Fold) A” value [4] is reported as 19.5 Fold, the “Relative Ratio (Fold) B” value [5] is reported as 13.1 Fold and the “Relative Ratio (Fold) C” value [6] is reported as 6.6 Fold.

For “687 (AILAVALPLLAP; Amino acid Sequence of aMTD687) [compound 687]”, the “Relative Ratio (Fold) A” value [4] was 12.0 Fold, the “Relative Ratio (Fold) B” value [5] was 7.0 Fold and the “Relative Ratio (Fold) C” value [6] was 4.1 Fold.

For “692 (PAPLPPVVILAV; Amino acid Sequence of rPeptide ID 692) [compound 692]”, the “Relative Ratio to aMTD AVE” value [7] was 0.74.

“693 (AAPVLPVAVPIV; Amino acid Sequence of rPeptide ID 693) [compound 693]” was tested, and the “Relative Ratio to aMTD AVE” value [7] was 0.13.

In the case of “700 (GTSNTCQSNQNS; Amino acid Sequence of rPeptide ID 700) [compound 700]”, the “Relative Ratio to aMTD AVE” value [7] is reported as 0.05, the “Relative Ratio (Fold) A” value (relative cell-permeability of rPeptide vs reference A (not defined)) is reported as 1.0 Fold and the “Relative Ratio (Fold) B” value (relative cell-permeability of rPeptide vs reference CPP B: MTM12) is reported as 0.6 Fold. The “Relative Ratio (Fold) C” value (relative cell-permeability of rPeptide vs reference CPP C: MTD85) was 0.3 Fold.

With “703 (IVAVALVPALAP; Amino acid Sequence of aMTD703) [compound 703]” the “Relative Ratio (Fold) A” value [4] was 29.2 Fold, the “Relative Ratio (Fold) B” value [5] was 19.5 Fold and the “Relative Ratio (Fold) C” value [6] was 9.9 Fold.

For “705 (IVAVALLPALAP; Amino acid Sequence of aMTD705) [compound 705]”, the “Relative Ratio (Fold) A” value [4] was 29.6 Fold, the “Relative Ratio (Fold) B” value [5] was 19.1 Fold and the “Relative Ratio (Fold) C” value [6] was 9.7 Fold.

“706 (IVAVALLPAVAP; Amino acid Sequence of aMTD706) [compound 706]” was tested, and the “Relative Ratio (Fold) A” value [4] was 12.0 Fold, the “Relative Ratio (Fold) B” value [5] was 7.0 Fold and the “Relative Ratio (Fold) C” value [6] was 4.1 Fold.

In the case of “707 (IVALAVLPAVAP; Amino acid Sequence of aMTD707) [compound 707]”, the “Relative Ratio (Fold) A” value [1] is reported as 7.3 Fold, the “Relative Ratio (Fold) C” value [2] is reported as 2.5 Fold and the “Relative Ratio (Fold) B” value [3] is reported as 4.9 Fold.

With “724 (VAVLAVLPALAP; Amino acid Sequence of aMTD724) [compound 724]” the “Relative Ratio (Fold) A” value [4] was 47.5 Fold, the “Relative Ratio (Fold) B” value [5] was 31.8 Fold and the “Relative Ratio (Fold) C” value [6] was 16.1 Fold.

In the case of “725 (IAVLAVAPAVLP; Amino acid Sequence of aMTD725) [compound 725]”, the “Relative Ratio (Fold) A” value [4] is reported as 11.2 Fold, the “Relative Ratio (Fold) B” value [5] is reported as 7.5 Fold and the “Relative Ratio (Fold) C” value [6] is reported as 3.8 Fold.

“726 (LAVAIIAPAVAP; Amino acid Sequence of aMTD726) [compound 726]” was tested, and the “Relative Ratio (Fold) A” value [4] was 16.5 Fold, the “Relative Ratio (Fold) B” value [5] was 11.0 Fold and the “Relative Ratio (Fold) C” value [6] was 5.6 Fold.

With “727 (VALAIALPAVLP; Amino acid Sequence of aMTD727) [compound 727]” the “Relative Ratio (Fold) A” value [4] was 54.7 Fold, the “Relative Ratio (Fold) B” value [5] was 36.7 Fold and the “Relative Ratio (Fold) C” value [6] was 18.5 Fold.

With “743 (AIAIALVPVALP; Amino acid Sequence of aMTD743) [compound 743]” the “Relative Ratio (Fold) A” value [4] was 7.4 Fold, the “Relative Ratio (Fold) B” value [5] was 4.9 Fold and the “Relative Ratio (Fold) C” value [6] was 2.5 Fold.

With “744 (AAVVIVAPVALP; Amino acid Sequence of aMTD744) [compound 744]” the “Relative Ratio (Fold) A” value [4] was 11.0 Fold, the “Relative Ratio (Fold) B” value [5] was 7.3 Fold and the “Relative Ratio (Fold) C” value [6] was 3.7 Fold.

With “746 (VAIIVVAPALAP; Amino acid Sequence of aMTD746) [compound 746]” the “Relative Ratio (Fold) A” value [4] was 7.6 Fold, the “Relative Ratio (Fold) B” value [5] was 4.4 Fold and the “Relative Ratio (Fold) C” value [6] was 2.6 Fold.

“763 (VAVLIAVPALAP; Amino acid Sequence of aMTD763) [compound 763]” was tested, and the “Relative Ratio (Fold) A” value [4] was 12.3 Fold, the “Relative Ratio (Fold) B” value [5] was 7.2 Fold and the “Relative Ratio (Fold) C” value [6] was 4.2 Fold.

“764 (AVALAVLPAVVP; Amino acid Sequence of aMTD764) [compound 764]” was tested, and the “Relative Ratio (Fold) A” value [1] was 5.0 Fold, the “Relative Ratio (Fold) C” value [2] was 1.7 Fold and the “Relative Ratio (Fold) B” value [3] was 3.4 Fold.
